The values that follow are results of earlier work, collected in patent US20030216871A1, “Calculating a characteristic property of a molecule by correlation analysis” (priority 2001, published 2003).

In data set [1] the test system is human tumor cells in culture. Conditions: C is average IC50 from assays, values from S. P. Gupta, Chem. Review 94, 1519 (1994); cited from earlier work.
The conditions of data set [2]: experimental logP used as measured property in R matrix; cited from earlier work.
For data set [3] the following is noted: organic amines, 25C, I = 0; cited from earlier work.

For `CO[C@@]12[C@H](COC(N)=O)C3=C(C(=O)C(C)=C(N)C3=O)N1C[C@@H]1N[C@@H]12` [Compound 1], in data set [1], the “Experimenter value of Active Concentration (log1/C) Against Human Tumor” value is recorded as 7.7.

As usually defined, the logP is a log measure of how a compound divides between an organic and an aqueous phase. As to `COC12C(COC(N)=O)C3=C(C(=O)C(C)=C(OC4CC4)C3=O)N1CC1NC12` (stereo not drawn) [Compound 21], the logP in data set [2] is reported as 0.83. In data set [1], the “Experimenter value of Active Concentration (log1/C) Against Human Tumor” value was 9.2.

As to `CC1=CCCCC1N` (stereo not drawn) [Compound 96], the pK exper in data set [3] is reported as 10.37.

As for `CO[C@@]12[C@H](COC(N)=O)C3=C(C(=O)C(C)=C(OCCOCCO)C3=O)N1C[C@@H]1N[C@@H]12` [Compound 27], the logP in data set [2] is recorded as −1.08. Further, in data set [1], the “Experimenter value of Active Concentration (log1/C) Against Human Tumor” value is 7.32.

On to `COC12C(COC(N)=O)C3=C(C(=O)C(C)=C(Nc4ccc(O)c([N+](=O)[O-])c4)C3=O)N1CC1NC12` (stereo not drawn) [Compound 16], for which the logP in data set [2] is recorded as 0.51. Further, the “Experimenter value of Active Concentration (log1/C) Against Human Tumor” value in data set [1] is recorded as 7.71.

On to `COC12C(COC(N)=O)C3=C(C(=O)C(C)=C(Nc4cc[nH]n4)C3=O)N1CC1NC12` (stereo not drawn) [Compound 19], for which the logP in data set [2] was 0.56. Also, the “Experimenter value of Active Concentration (log1/C) Against Human Tumor” value in data set [1] is given as 7.38.

Take `COC12C(COC(N)=O)C3=C(C(=O)C(C)=C(Nc4ccccc4)C3=O)N1CC1NC12` (stereo not drawn) [Compound 7]: the logP in data set [2] was 1.3. Further, in data set [1], the “Experimenter value of Active Concentration (log1/C) Against Human Tumor” value is recorded as 8.78.

On to `COC12C(COC(N)=O)C3=C(C(=O)C(C)=C(Nc4ccc(I)cc4)C3=O)N1CC1NC12` (stereo not drawn) [Compound 12], for which the logP in data set [2] was 2.42. For the same compound, the “Experimenter value of Active Concentration (log1/C) Against Human Tumor” value in data set [1] is 8.77.

Turning to `COC12C(COC(N)=O)C3=C(C(=O)C(C)=C(OCc4ccccc4)C3=O)N1CC1NC12` (stereo not drawn) [Compound 24], the logP in data set [2] is listed as 1.94. For the same compound, the “Experimenter value of Active Concentration (log1/C) Against Human Tumor” value in data set [1] is 9.21.

Regarding `COC12C(COC(N)=O)C3=C(C(=O)C(C)=C(Nc4ccc(O)cc4)C3=O)N1CC1NC12` (stereo not drawn) [Compound 13], the logP in data set [2] is on record as 0.63. Besides, the “Experimenter value of Active Concentration (log1/C) Against Human Tumor” value in data set [1] was 7.88.

Consider `COC12C(COC(N)=O)C3=C(C(=O)C(C)=C(Nc4nc(C)cs4)C3=O)N1CC1NC12` (stereo not drawn) [Compound 18], for which the logP in data set [2] is recorded as 1.52. Further, in data set [1], the “Experimenter value of Active Concentration (log1/C) Against Human Tumor” value was 8.69.

Regarding `NC1C=CCCC1` (stereo not drawn) [Compound 95], the pK exper in data set [3] is recorded as 10.42.

As to `CO[C@@]12[C@H](COC(N)=O)C3=C(C(=O)C(C)=C(Nc4ccc5[nH]ccc5c4)C3=O)N1C[C@@H]1N[C@@H]12` [Compound 17], the logP in data set [2] is recorded as 2.45. Further, the “Experimenter value of Active Concentration (log1/C) Against Human Tumor” value in data set [1] is 8.75.

For `COC12C(COC(N)=O)C3=C(C(=O)C(C)=C(Nc4ccc(Br)cc4)C3=O)N1CC1NC12` (stereo not drawn) [Compound 10], the logP in data set [2] is given as 2.16. In data set [1], the “Experimenter value of Active Concentration (log1/C) Against Human Tumor” value was 8.72.

Take `COC1=C(C)C(=O)C2=C(C1=O)[C@@H](COC(N)=O)[C@@]1(OC)[C@H]3N[C@H]3CN21` [Compound 20]: the logP in data set [2] is 0.26. Also, the “Experimenter value of Active Concentration (log1/C) Against Human Tumor” value in data set [1] is listed as 9.52.

Turning to `CO[C@@]12[C@H](COC(N)=O)C3=C(C(=O)C(C)=C(OCC4CC4)C3=O)N1C[C@@H]1N[C@@H]12` [Compound 22], the “Experimenter value of Active Concentration (log1/C) Against Human Tumor” value in data set [1] was 9.43.

Take `C#CCNC1=C(C)C(=O)C2=C(C1=O)C(COC(N)=O)C1(OC)C3NC3CN21` (stereo not drawn) [Compound 3]: the logP in data set [2] was 0.24. In data set [1], the “Experimenter value of Active Concentration (log1/C) Against Human Tumor” value is 8.46.

Consider `COC12C(COC(N)=O)C3=C(C(=O)C(C)=C(Nc4ccc(N)cc4)C3=O)N1CC1NC12` (stereo not drawn) [Compound 8], for which the logP in data set [2] is given as 0.07. In addition, the “Experimenter value of Active Concentration (log1/C) Against Human Tumor” value in data set [1] is 7.83.

For the compound `COC12C(COC(N)=O)C3=C(C(=O)C(C)=C(Nc4ccc(O)c(I)c4)C3=O)N1CC1NC12` (stereo not drawn) [Compound 15], in data set [2], the logP was 1.75. In addition, in data set [1], the “Experimenter value of Active Concentration (log1/C) Against Human Tumor” value was 7.76.

Turning to `COCCOCCOC1=C(C)C(=O)C2=C(C1=O)[C@@H](COC(N)=O)[C@@]1(OC)[C@H]3N[C@H]3CN21` [Compound 28], in data set [2], the logP was −0.46. Moreover, the “Experimenter value of Active Concentration (log1/C) Against Human Tumor” value in data set [1] is given as 8.24.

As to `COC12C(COC(N)=O)C3=C(C(=O)C(C)=C(OCC4CCC4)C3=O)N1CC1NC12` (stereo not drawn) [Compound 23], the logP in data set [2] was 2.47. In data set [1], the “Experimenter value of Active Concentration (log1/C) Against Human Tumor” value is 9.66.

With `CO[C@@]12[C@H](COC(N)=O)C3=C(C(=O)C(C)=C(NCCc4ccccn4)C3=O)N1C[C@@H]1N[C@@H]12` [Compound 6], the logP in data set [2] is 1.23. In data set [1], the “Experimenter value of Active Concentration (log1/C) Against Human Tumor” value was 7.38.

Take `COC12C(COC(N)=O)C3=C(C(=O)C(C)=C(OCCOc4ccccc4)C3=O)N1CC1NC12` (stereo not drawn) [Compound 26]: the logP in data set [2] is reported as 1.74. For the same compound, in data set [1], the “Experimenter value of Active Concentration (log1/C) Against Human Tumor” value is reported as 9.48.

In the case of `COC12C(COC(N)=O)C3=C(C(=O)C(C)=C(Nc4cccc(I)c4)C3=O)N1CC1NC12` (stereo not drawn) [Compound 11], the logP in data set [2] is 2.42. The “Experimenter value of Active Concentration (log1/C) Against Human Tumor” value in data set [1] was 8.9.

In the case of `COC12C(COC(N)=O)C3=C(C(=O)C(C)=C(OCCO)C3=O)N1CC1NC12` (stereo not drawn) [Compound 25], the logP in data set [2] is −1.1. For the same compound, in data set [1], the “Experimenter value of Active Concentration (log1/C) Against Human Tumor” value is recorded as 8.31.

With `CO[C@@]12[C@H](COC(N)=O)C3=C(C(=O)C(C)=C(Nc4ccc([N+](=O)[O-])cc4)C3=O)N1C[C@@H]1N[C@@H]12` [Compound 14], in data set [2], the logP is 1.02. In addition, the “Experimenter value of Active Concentration (log1/C) Against Human Tumor” value in data set [1] is 9.07.
